Experimental data from paper PMC4309172, “Binding of a fluorescence reporter and a ligand to an odorant-binding protein of the yellow fever mosquito, Aedes aegypti” (F1000Research, 2015).

Assays:
[1] = biological target: T1, AaegOBP1 (odorant-binding protein, also named AaegOBP39) (Aedes aegypti, UniProt Q6Y2R8); assay: NPN fluorescence displacement/quenching, pH […]; Kd from decreasing phase only ([…]), fluorescence rises at higher doses
T1 construct: recombinant AaegOBP1 (AY189223), periplasmic expression in BL21(DE3), purified and delipidated
T1 sequence (Q6Y2R8 19-143): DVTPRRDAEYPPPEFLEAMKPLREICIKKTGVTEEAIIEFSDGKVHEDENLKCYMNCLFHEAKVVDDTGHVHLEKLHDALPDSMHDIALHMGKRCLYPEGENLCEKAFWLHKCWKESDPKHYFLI

[2] = biological target: T1, AaegOBP1 (odorant-binding protein, also named AaegOBP39); assay: direct fluorescence titration with NPN, pH […] (Kd […] at pH […])

`CCCCCCCCCC[C@H](OC(C)=O)[C@H]1CCCC(=O)O1` (racemic) [MOP, (5 R,6 S)-6-acetoxy-5-hexadecanolide] showed a Kd [1] of 2640 ± 160 nM.

In the case of `c1ccc(Nc2cccc3ccccc23)cc1` [NPN, N-phenyl-1-naphthylamine], the Kd [2] is reported as 3310 ± 480 nM.
